Measured values from patent EP3811945A1, “COMPOUNDS FOR TREATING AND PREVENTING GROWTH HORMONE RECEPTOR-DEPENDENT CONDITIONS” (UMC Utrecht Holding B.V., priority 2019, dated 2021).
pEC50: −log10 of the molar value.

Columns and labels:
[1] = tested on: dog breast cancer cells, grown as organoids; test: Growth of canine mammary tumor organoids; type: cell-based; details: Canis lupus familiaris; organoids in Matrigel; read-out: EC50 growth inhibition of dog breast cancer organoids
Protocol: Next, we determined that also growth of dog breast cancer cells, grown as organoids, could be inhibited with the compounds according to the invention, in the best case (compound #1) with an EC50 of about 20 nM, see also figure 3.
Canine mammary organoids were derived from tumor cells and cultured in Matrigel in the presence of a variety of growth factors, Wnt activators and MPA (Timmermans-Sprang et al., 2017). Organoids were treated for 48 h with 100 nM of compound #1, followed by staining with DAPI (nuclei) or specific antibodies against GHR or cytokeratin 8 (CK8).

[2] = tested on: triple negative human breast cancer cells (MDA-MB-231); test: Proliferation test (DNA in vital cells, dose-response); type: cell-based; details: Homo sapiens; inhibition of proliferation of MDA-MB-231, tested after 24, 48, 72h in cell culture
Protocol: The EC50 refers to the inhibitory effect of the compounds on the proliferation of triple negative human breast cancer cells (MDA-MB-231), tested after 24, 48, 72h in cell culture.
We used the triple-negative human breast cancer line, MDA-MB-231 and quantified DNA in vital cells. Dose-response curves were made after 24, 48 & 72 h. […] The compound with the lowest EC50 (Compound #1) was tested in vivo.

[3] = tested on: GM-CSF signaling; test: GH/GM-CSF flow cytometric test in whole human blood with IM-9 lymphoblasts; details: selectivity versus another Jak2-dependent cytokine
Protocol: This allowed simultaneous testing of GH- and GM-CSF activity. The GH/GM-CSF cytometric test added two important criteria to GH signaling: The test prioritized compounds that target the GH-driven signaling at the expense of another Jak2-dependent cytokine signaling (GM-CSF); equally important: it selected compounds that exert a rapid effect on the GH/IGF-axis as the response time for STAT5 phosphorylation was limited to 20-30 min.
(§1) GH-induced GH-GHR-Jak2 signaling was probed by GHR pY staining in concentration series (0-20 µM, 1 h drug-treated, 10 min GH).

[4] = tested on: GHR; test: GHR protein levels and phosphorylation in GHR-expressing HEK293T cells transfected with Jak2 (blot, Figure 4A); type: cell-based, rabbit; details: overnight treatment, compounds 10 µM; 90 ng GH/ml 10 min before lysis
Source text: • Figure 1. […] Unphosphorylated fos-GHRct is rapidly degraded.

[5] = tested on: fos-zippered GHR cytosolic tails; test: In vitro translation in HeLa cell-free system (Figure 4B); type: biochemical; details: HeLa cell extract, increasing concentrations
Source text: • Figure 1. Diagram of the primary screening method for candidate compounds. Depicted are GHR fos-zipped cytosolic tails, amino acid 288-638 with fos zippers (fos), box-1 sequence (B1), and Jak2 (FERM, SH2, pseudokinase and kinase domains), as described in Nespital et al., 2016; Sedek et al, 2014). If the dimerized tails and Jak2 bind via FERM and Box-1, Jak2 gets activated and phosphorylates itself, the dimerized tails and STAT5b. After phosphorylation of specific tyrosine residues on GHR, Jak2 and STAT5, the complex dissociates; as fos-pGHRct is protease-resistant it accumulates in the cells. Unphosphorylated fos-GHRct is rapidly degraded. Steady state levels of Fos-pGHRct are lower if its synthesis, degradation or Jak2-interaction is changed by a candidate compound. The cell-based assay was performed in y2A cells carrying inducible Jak2 (iJak2) or binding-deficient iJak2 Y119E (as control). • Figure 2. Effect of test compounds on mice, xenografted with MDA-MB-231 cells. Athymic nude BALB/c mice were transplanted with luciferase-expressing MDA-MB-231 cells at week -5. Starting at week 0, compound #1 was injected 3 times a week for 3 weeks; group size: 9, intraperitoneally (IP) at 1 or 5 mg/kg as indicated. […] The blots were detected with an anti-GHR antibody raised in rabbits against the cytosolic tails. • Figure 5: Schematic view of GHR signaling. […]

[6] = tested on: MDA-MB-231 cells; test: In vivo test in mice xenografted with MDA-MB-231 cells; parameters: species or system Athymic nude BALB/c mice
Source text: • Figure 1. Diagram of the primary screening method for candidate compounds. Depicted are GHR fos-zipped cytosolic tails, amino acid 288-638 with fos zippers (fos), box-1 sequence (B1), and Jak2 (FERM, SH2, pseudokinase and kinase domains), as described in Nespital et al., 2016; Sedek et al, 2014). If the dimerized tails and Jak2 bind via FERM and Box-1, Jak2 gets activated and phosphorylates itself, the dimerized tails and STAT5b. After phosphorylation of specific tyrosine residues on GHR, Jak2 and STAT5, the complex dissociates; as fos-pGHRct is protease-resistant it accumulates in the cells. Unphosphorylated fos-GHRct is rapidly degraded. Steady state levels of Fos-pGHRct are lower if its synthesis, degradation or Jak2-interaction is changed by a candidate compound. The cell-based assay was performed in y2A cells carrying inducible Jak2 (iJak2) or binding-deficient iJak2 Y119E (as control). • Figure 2. Effect of test compounds on mice, xenografted with MDA-MB-231 cells. Athymic nude BALB/c mice were transplanted with luciferase-expressing MDA-MB-231 cells at week -5. Starting at week 0, compound #1 was injected 3 times a week for 3 weeks; group size: 9, intraperitoneally (IP) at 1 or 5 mg/kg as indicated. Anesthetized mice were IP-injected with luciferin and the bioluminescence was imaged. The animals received the last drug injections 2 hours before they were euthanized, then blood was collected and livers were weighed. […] Organoids were cultured in Matrigel in the presence of a variety of growth factors, Wnt activators and MPA. Organoids were treated for 48 h with 100 nM of compound #1 followed by staining with DAPI (nuclei) or specific antibodies against GHR or cytokeratin 8. • Figure 4A: Effect of compounds on GHR levels in Hek293T cells. […] The amounts of GHR both at the plasma membrane (PM) and in the endoplasmic reticulum (ER) were decreased in the cells treated with the compounds. […] Decrease of the pY signal in lanes 3 and 4 in the middle panel reflects the decrease of GHR protein levels (in the upper panel). […] Translation of other proteins was not affected by the drugs (not shown). We used a cell-free translation system based on HeLa cell extract (Promega) Empty vector (pcDNA) was used as control. The blots were detected with an anti-GHR antibody raised in rabbits against the cytosolic tails. • Figure 5: Schematic view of GHR signaling. Top panel, downstream signaling pathways with their main expressed genes and enzymatic activities; middle panel, resulting effect; lower panel, major diseased states if unbalanced.
Mice were xenografted with MDA-MB-231 cells as described. This cell line was chosen as it is GH-responsive, […] can block doxorubicin-induced apoptosis, it lacks E-cadherin due to hypermethylation, proliferates fast, has a basal-like expression profile and originates from infiltrating ductal breast cancer (Christgen and Derksen, 2015; Hollestelle et al., 2013; Minoia et al., 2012).
We used a protocol of 3 injections per week (1 and 5 mg/kg) during 3 weeks (9 mice/group). The treatment started after 5 weeks at a tumor volume of about 60 mm^3, and the animals were killed after 3 weeks at a tumor volume of 130 mm^3 in the control group.

[7] = tested on: GH-GHR-Jak2 signaling; test: GH-induced signaling in Hek293T cells expressing GHR (pY staining, concentration series)
Protocol: as §1

[8] = IP 1 or 5 mg/kg, 3 times a week for 3 weeks

- pEC50 [1]: ~7.70
- pEC50 [2]: 7.52
- pEC50 ([7]; Oryctolagus cuniculus, HEK-293T): ~6.52
Compound: Cc1nc(N)nc(N)c1C=CC1(c2ccc(C(F)(F)F)cc2)CC1 [Compound #1, 6-methyl-5-[2-{1-[4-(trifluoromethyl)phenyl]cyclopropyl}ethenyl]pyrimidine-2,4-diamine]
- activity towards GM-CSF signaling [3]: inactive
- amounts of GHR at the plasma membrane (PM) and in the endoplasmic reticulum (ER) / GHR protein levels [4]: decreased
- effective concentrations on in vitro translation of fos-zippered GHR cytosolic tails [5]: > 0.1 µM
- significantly lowered liver weight [6, 8]: 85%
- total body weights [6, 8]: remained the same
- significantly lowered serum IGF-1 ([6]; IP 1 or 5 mg/kg, 3 times a week for 3 weeks, blood 2 hours after last injection): 27%
- level of plasma IGF-1 (figure 2C) ([6]; treated vs control mice): decreased
- liver weight (figure 2D) ([6]; treated vs control mice): reduced
- phosphorylation of fos-GHRct (fos-pGHRct), of the active site of Jak2 (p1007/1008) and of STAT5 (pSTAT5) [7]: inhibited
